Laboratory results reported in US20100178652A1, “Materials and Methods for the Detection, Prevention and Treatment of Autoimmune Disease” (priority 2007, published 2010).

Legend:
STAT5 phosphorylation [1] = assay: Persistence of STAT5 phosphorylation in mature myeloid cells when GM-CSF signaling is blocked; assay type: cell-based, NOD mouse; conditions: NOD mature myeloid cells, once activated; inhibition of GM-CSF signaling
From the text: Flow cytometric analysis of fluorescently-conjugated antibody surface and intracellular binding will be used to phenotypically identify myeloid cells and quantify the level of STAT5 tyrosine phosphorylation in cells ex vivo and after in vitro stimulation. Cells will be first labeled with anti-CD11b and anti-IgM antibody conjugates to identify monocytes and macrophages (CD11b+/IgM−) in the sample, then fixed with 2% (v/v Cf) formaldehyde and permeabilized using 0.5% saponin in a high protein, isotonic buffer. Intracellular staining of STAT5Ptyr will be done using APC-conjugated anti-STAT5Ptyr specific monoclonal antibodies (Upstate Biotech, conjugated using Prozyme APC-labeling kit). This method is well developed in our laboratory and has shown good consistency in current studies. We will analyze the percentage of positive myeloid cells (% STATPtyr+/CD11b+) as well as mean fluorescence (MF) to assess both the number of cells in the myeloid population with activated STAT5 and the relative amount of phosphorylated STAT5 per cells after treatment. After flow analysis, the labeled cells are centrifuged onto slides and stain them for chromatin (DAPI, Molecular Probes). These cells were used for imaging by deconvolution microscopy as previously described and then used 3 dimensional projection rotational analysis to identify subcellular location of activated STAT5.

STAT5 phosphorylation [2] = conditions: mature monocytes and macrophages; blocking GM-CSF signaling; ref [20]; cited from earlier work

**Q.** With N#C/C(=C/c1ccc(O)c(O)c1)C(=O)NCc1ccccc1 [AG490] as the molecule, how does the “persistence of STAT5 phosphorylation” value (STAT5 phosphorylation [1]) read?
**A.** not affected

**Q.** What about the “persistence of phosphorylated STAT5” value (STAT5 phosphorylation [2]) of the same molecule?
**A.** does not affect
